# Target: T1, Neprilysin (Rattus norvegicus, UniProt P07861)
# T1 sequence (P07861 whole entry): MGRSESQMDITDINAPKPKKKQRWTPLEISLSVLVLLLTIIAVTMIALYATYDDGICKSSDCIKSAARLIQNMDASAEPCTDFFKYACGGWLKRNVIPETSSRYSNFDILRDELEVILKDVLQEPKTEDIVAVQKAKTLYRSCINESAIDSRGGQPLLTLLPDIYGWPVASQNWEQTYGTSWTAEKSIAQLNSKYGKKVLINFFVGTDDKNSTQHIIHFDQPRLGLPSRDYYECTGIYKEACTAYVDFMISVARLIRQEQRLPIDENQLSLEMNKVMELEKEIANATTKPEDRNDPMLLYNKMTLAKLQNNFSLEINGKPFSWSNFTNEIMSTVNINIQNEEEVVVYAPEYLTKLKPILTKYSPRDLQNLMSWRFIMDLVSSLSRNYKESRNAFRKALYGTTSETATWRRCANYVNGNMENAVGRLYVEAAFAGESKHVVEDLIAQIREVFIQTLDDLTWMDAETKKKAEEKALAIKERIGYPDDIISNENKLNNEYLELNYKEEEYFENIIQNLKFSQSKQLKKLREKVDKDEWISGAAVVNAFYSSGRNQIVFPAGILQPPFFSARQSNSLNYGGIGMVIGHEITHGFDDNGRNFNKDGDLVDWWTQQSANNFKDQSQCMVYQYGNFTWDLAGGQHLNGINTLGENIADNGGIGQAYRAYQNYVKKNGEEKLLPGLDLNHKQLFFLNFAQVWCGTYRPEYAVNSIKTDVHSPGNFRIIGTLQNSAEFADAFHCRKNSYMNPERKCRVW
# Assay: In vitro inhibitory activity against neutral endopeptidase (NEP) from rat kidney
row,Compound,IC50 [nM]
1,O=C(O)CNC(=O)[C@H](Cc1ccc(-c2ccccc2)cc1)CC(COc1ccccc1)C(=O)O (stereo not given in full),5.9

# Target: T1, Neprilysin
# Assay: In vitro inhibition of neutral endopeptidase from rat kidney.
row,Compound,IC50 [nM]
1,CCCC[C@H](C[C@H](Cc1ccc(-n2cccn2)cc1)C(=O)NCC(=O)O)C(=O)O,366
2,"O=C(O)C(COc1ccccc1)C[C@@H](Cc1ccc(-c2ccccc2)cc1)C(=O)N1CCCC1C(=O)O (single isomer, unassigned; isomer B)",> 1000
3,CSCCC(NC(=O)[C@H](Cc1ccc(-c2ccccc2)cc1)CC(COc1ccccc1)C(=O)O)C(=O)O (mixture of isomers),101
4,"O=C(O)CNC(=O)C(Cc1ccccc1)CC(COc1ccccc1)C(=O)O (single isomer, unassigned; isomer A)",> 1000
5,CC(NC(=O)[C@H](Cc1ccc(-c2ccccc2)cc1)CC(COc1ccccc1)C(=O)O)C(=O)O (mixture of isomers),20
6,O=C(O)CNC(=O)[C@@H](C[C@H](COc1ccccc1)C(=O)O)Oc1ccc(-c2ccccc2)cc1,> 1000
7,O=C(O)CC[C@@H](Cc1ccc(-c2ccccc2)cc1)C(=O)NCC(=O)O,2.3
8,CCC/C=C(/C[C@@H](Cc1ccc(-n2cccn2)cc1)C(=O)NCC(=O)O)C(=O)O,> 1000
9,CC(NC(=O)[C@H](Cc1ccc(-c2ccccc2)cc1)CC(COc1ccccc1)C(=O)O)C(=O)O (stereo in doubt),2.8
10,"O=C(O)CNC(=O)C(Cc1ccccc1)CC(COc1ccccc1)C(=O)O (single isomer, unassigned; isomer B)",407
11,C[C@@H](NC(=O)[C@H](Cc1ccc(-c2ccccc2)cc1)CC(COc1ccccc1)C(=O)O)C(=O)O (stereo in doubt; form 1),13
12,C[C@@H](NC(=O)[C@H](Cc1ccc(-c2ccccc2)cc1)CC(COc1ccccc1)C(=O)O)C(=O)O (stereo in doubt; form 2),8.7
13,O=C(O)C(COc1ccccc1)C[C@@H](Cc1ccc(-c2ccccc2)cc1)C(=O)N1CCCC1C(=O)O (stereo in doubt),> 1000
14,"O=C(O)CNC(=O)[C@H](Cc1ccc(-c2ccccc2)cc1)CC(COc1ccccc1)C(=O)O (single isomer, unassigned; isomer A)",3.2
15,O=C(O)CNC(=O)[C@H](Cc1ccc(-c2ccccc2)cc1)C[C@H](COc1ccccc1)C(=O)O,5.9
16,"COCCOCC(CC(Cc1ccccc1)C(=O)NCC(=O)O)C(=O)O (single isomer, unassigned; isomer B)",945
17,CC(CC(Cc1ncc(-c2ccccc2)cn1)C(=O)NCC(=O)O)C(=O)O (stereo not given),> 1000
18,"COCCOCC(CC(Cc1ccccc1)C(=O)NCC(=O)O)C(=O)O (single isomer, unassigned; isomer A)",> 1000
19,O=C(O)CNC(=O)[C@H](Cc1ccc(-c2ccccc2)cc1)C[C@@H](COc1ccccc1)C(=O)O,3.2
